Here are results for 13 molecules from patent US20120245137A1 (Zalicus Pharmaceuticals Ltd., priority 2009, published 2012).

What all share (type): cell-based
Test [1] deals with Human Cav 2.2 channels (Homo sapiens, UniProt Q00975). Put plainly: Fluorescent assay for CaV2.2 channels using potassium depolarization (VIPR/FLIPR). To be noted: FLIPR data; for CAv2.2 IC50 Ratio closed/inact.: ratio closed/inactivated IC50. The method, boiled down: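 HEK293 cells stably expressing human Cav2.2 with α2δ and β subunits plus Kir2.3 were loaded with fluo-4 and incubated 30 min at 25 °C with compound in 4, 12, 25 or 30 mM potassium buffer. Channels were opened with 70 mM potassium (final) and calcium influx was read by fluorescence (Ex 480/Em 535 nm).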

Test [2] has as its target T-type calcium channel (Homo sapiens, UniProt O95180). The test can be described thus: T-type channel blocking, FLIPR data (Table 6). The note with it: for CAv3.2 IC50 Ratio closed/inact.: CAv3.2, ratio closed/inactivated IC50. The source says: (§1) Another method, high-throughput spectrophotometric assay, utilizes loading of the cell lines with a fluorescent dye sensitive to intracellular calcium concentration and subsequent examination of the effects of compounds on the ability of depolarization by potassium chloride or other means to alter intracellular calcium levels.

In test [3] the target is T-type calcium channel (Homo sapiens, UniProt O43497). Put plainly: T-type channel blocking, FLIPR data (Table 6). The note with it: CAv3.1.
Chain of T-type calcium channel (Homo sapiens, UniProt O43497) (O43497 whole entry): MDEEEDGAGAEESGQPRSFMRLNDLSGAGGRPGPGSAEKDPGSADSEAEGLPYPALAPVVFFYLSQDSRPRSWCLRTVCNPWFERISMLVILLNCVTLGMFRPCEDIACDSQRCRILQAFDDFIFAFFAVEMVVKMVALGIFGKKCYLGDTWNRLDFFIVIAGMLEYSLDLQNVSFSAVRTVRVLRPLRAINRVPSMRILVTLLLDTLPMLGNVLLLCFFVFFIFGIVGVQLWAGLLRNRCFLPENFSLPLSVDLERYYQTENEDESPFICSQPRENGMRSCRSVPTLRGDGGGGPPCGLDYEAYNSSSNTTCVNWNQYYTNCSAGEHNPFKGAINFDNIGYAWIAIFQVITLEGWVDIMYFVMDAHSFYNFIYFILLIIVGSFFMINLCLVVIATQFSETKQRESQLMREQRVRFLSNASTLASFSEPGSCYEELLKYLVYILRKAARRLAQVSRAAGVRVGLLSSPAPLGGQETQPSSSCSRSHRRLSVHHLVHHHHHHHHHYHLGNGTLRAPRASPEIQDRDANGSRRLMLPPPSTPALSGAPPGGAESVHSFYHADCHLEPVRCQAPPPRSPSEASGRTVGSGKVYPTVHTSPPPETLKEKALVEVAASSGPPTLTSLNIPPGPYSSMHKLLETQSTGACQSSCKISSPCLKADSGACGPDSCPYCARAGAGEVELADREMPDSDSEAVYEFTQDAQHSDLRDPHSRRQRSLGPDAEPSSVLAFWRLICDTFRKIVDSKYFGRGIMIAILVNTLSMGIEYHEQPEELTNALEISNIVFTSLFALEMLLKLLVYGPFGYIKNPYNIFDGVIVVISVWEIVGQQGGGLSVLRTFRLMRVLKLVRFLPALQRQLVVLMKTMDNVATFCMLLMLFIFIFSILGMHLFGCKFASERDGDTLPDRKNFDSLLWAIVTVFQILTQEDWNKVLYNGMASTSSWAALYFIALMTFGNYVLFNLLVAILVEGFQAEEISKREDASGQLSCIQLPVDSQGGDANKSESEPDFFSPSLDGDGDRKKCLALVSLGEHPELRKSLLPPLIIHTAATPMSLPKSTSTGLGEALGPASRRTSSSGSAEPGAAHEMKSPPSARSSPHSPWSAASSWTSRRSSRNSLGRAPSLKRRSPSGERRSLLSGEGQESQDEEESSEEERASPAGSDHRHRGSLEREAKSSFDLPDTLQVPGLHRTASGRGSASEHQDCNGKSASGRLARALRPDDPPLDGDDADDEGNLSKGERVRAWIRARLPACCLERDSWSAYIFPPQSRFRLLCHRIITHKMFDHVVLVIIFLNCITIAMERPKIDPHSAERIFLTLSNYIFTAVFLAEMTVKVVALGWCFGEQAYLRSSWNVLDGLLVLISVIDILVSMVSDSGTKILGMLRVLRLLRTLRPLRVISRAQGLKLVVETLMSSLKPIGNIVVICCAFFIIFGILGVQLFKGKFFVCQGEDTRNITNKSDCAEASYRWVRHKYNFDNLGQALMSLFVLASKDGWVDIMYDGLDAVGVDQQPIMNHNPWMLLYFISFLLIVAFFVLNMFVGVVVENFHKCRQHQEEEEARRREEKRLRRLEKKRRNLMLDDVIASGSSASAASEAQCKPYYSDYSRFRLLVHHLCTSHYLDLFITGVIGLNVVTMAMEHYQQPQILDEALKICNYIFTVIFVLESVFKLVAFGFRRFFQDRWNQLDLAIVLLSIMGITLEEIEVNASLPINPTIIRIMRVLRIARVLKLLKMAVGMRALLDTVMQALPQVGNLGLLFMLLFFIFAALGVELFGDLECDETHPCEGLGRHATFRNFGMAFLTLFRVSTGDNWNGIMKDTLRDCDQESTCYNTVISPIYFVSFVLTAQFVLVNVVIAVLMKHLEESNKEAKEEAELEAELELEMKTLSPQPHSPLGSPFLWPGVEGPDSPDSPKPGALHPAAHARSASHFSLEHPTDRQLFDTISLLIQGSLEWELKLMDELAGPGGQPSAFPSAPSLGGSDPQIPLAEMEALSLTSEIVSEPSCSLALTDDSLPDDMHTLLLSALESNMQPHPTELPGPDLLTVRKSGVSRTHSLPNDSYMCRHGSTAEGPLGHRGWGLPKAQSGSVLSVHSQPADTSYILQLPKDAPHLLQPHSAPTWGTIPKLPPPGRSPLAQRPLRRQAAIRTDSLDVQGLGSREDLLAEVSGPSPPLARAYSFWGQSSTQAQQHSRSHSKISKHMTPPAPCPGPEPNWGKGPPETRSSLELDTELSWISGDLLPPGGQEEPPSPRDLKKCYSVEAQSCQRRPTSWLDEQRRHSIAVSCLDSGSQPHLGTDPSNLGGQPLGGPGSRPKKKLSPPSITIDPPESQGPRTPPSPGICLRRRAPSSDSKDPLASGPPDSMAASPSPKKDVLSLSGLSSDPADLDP
Description: as §1

The target in test [4] is CAv1.2 (Homo sapiens, UniProt Q13936). The test can be described thus: FLIPR data, CAv1.2 channel blocking (Table 6). To be noted: for CAv1.2 IC50 Ratio closed/inact.: ratio closed/inactivated IC50.
Where [5] appears, read: closed state, read-out: CAv2.2 IC50 Closed.
Setting [6] is: inactivated state, read-out: CAv2.2 IC50 Inact.
Where [7] appears, read: CAv3.2, closed state, read-out: CAv3.2 IC50 Closed.
Setting [8] is: CAv3.2, inactivated state, read-out: CAv3.2 IC50 Inact.
The mark [9] stands for this setting: closed state, read-out: CAv1.2 IC50 Closed.
The mark [10] stands for this setting: inactivated state, read-out: CAv1.2 IC50 Inact.

Read-outs that look alike come from different tables or passages of the source.

Chain of T-type calcium channel (Homo sapiens, UniProt O95180) (O95180 whole entry): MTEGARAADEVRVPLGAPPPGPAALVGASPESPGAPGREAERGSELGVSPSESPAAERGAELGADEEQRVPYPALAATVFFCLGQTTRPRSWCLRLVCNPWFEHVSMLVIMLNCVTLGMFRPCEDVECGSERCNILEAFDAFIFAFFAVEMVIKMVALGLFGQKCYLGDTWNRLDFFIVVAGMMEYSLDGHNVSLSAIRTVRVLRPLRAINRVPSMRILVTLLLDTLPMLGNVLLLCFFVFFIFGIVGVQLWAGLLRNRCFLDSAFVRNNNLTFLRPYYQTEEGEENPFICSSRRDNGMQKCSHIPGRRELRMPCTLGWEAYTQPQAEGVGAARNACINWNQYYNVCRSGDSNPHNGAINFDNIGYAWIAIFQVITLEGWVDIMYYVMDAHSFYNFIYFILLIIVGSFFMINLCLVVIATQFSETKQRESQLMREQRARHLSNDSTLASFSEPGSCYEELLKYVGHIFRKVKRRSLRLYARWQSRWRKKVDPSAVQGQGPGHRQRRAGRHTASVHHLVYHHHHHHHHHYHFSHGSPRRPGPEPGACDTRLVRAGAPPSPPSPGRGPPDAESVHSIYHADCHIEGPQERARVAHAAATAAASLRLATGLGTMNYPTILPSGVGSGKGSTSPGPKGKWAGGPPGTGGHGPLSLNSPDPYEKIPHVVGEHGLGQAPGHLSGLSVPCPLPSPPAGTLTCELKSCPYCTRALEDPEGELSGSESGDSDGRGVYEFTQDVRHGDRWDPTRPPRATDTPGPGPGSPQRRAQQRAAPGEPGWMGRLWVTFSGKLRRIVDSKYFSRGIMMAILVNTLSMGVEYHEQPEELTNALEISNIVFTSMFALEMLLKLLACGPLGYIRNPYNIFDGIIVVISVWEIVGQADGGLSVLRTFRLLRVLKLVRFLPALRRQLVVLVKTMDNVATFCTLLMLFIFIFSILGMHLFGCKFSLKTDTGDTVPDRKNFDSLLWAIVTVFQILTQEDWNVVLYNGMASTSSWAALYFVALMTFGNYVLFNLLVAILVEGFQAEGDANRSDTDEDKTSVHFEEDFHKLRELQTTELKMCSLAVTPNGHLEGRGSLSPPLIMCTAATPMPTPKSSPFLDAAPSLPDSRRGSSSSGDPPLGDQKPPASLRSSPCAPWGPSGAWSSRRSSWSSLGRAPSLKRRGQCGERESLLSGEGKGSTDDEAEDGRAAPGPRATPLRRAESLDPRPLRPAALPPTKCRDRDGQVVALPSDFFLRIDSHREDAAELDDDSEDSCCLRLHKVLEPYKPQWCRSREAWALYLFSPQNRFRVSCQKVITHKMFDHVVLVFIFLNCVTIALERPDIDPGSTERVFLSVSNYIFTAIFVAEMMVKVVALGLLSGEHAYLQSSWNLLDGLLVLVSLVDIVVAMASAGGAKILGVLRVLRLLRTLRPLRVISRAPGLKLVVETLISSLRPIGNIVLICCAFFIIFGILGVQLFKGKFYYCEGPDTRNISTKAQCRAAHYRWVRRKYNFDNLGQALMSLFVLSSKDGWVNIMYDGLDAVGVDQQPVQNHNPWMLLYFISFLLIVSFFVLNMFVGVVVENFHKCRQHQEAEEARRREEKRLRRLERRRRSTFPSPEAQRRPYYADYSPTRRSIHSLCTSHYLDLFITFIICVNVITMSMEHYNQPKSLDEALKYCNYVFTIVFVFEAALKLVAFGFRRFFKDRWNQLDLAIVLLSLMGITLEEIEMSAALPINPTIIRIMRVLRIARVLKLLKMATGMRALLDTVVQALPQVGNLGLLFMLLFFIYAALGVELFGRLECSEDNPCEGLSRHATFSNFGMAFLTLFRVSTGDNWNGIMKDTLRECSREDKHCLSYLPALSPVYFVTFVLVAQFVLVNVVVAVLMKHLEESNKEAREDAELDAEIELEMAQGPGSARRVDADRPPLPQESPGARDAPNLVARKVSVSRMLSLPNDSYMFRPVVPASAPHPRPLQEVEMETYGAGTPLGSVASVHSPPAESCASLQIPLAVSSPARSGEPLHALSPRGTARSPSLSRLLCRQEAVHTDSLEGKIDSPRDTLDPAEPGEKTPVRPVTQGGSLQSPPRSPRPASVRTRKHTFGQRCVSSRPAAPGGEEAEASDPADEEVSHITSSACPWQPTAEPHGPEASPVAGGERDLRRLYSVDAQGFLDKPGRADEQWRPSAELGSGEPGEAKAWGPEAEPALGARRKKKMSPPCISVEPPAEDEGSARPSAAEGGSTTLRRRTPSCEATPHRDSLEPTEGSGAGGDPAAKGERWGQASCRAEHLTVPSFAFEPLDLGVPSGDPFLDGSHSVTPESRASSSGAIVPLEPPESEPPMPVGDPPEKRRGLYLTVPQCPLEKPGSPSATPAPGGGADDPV

The IC50 is the point on the concentration scale where inhibition reaches its midpoint. Take `CC(C)([C@H]1C[C@@H](NC(=O)c2ccc(Cl)cc2S(C)(=O)=O)C1)S(=O)(=O)c1cccc(C(F)(F)F)c1` [Compound 580]: the IC50 in test [1] (setting [5]) was 10 µM; in test [1] (setting [6]), 0.26 µM; in test [2] (setting [7]) it was ≥ 10 µM; in test [2] (setting [8]), 10 µM; in test [3] it was ≥ 10 µM; in test [4] (setting [9]) it was ≥ 10 µM. The IC50 in test [4] (setting [10]) is ≥ 10 µM. Further, the “CAv2.2 IC50 Ratio closed/inact.” value in test [1] turned out to be 38.5. Besides, the “CAv3.2 IC50 Ratio closed/inact.” value in test [2] came to 1.
On to `CC(C)([C@H]1C[C@@H](NC(=O)c2ccc(C(F)(F)F)cc2)C1)S(=O)(=O)c1cccc(C(F)(F)F)c1` [Compound 581], for which the half-inhibitory concentration (IC50) is 2.43 µM in test [1] (setting [5]); 0.13 µM in test [1] (setting [6]); 3.07 µM in test [2] (setting [7]); 0.66 µM in test [2] (setting [8]); 4.84 µM in test [3]; 3.87 µM in test [4] (setting [9]). Also, in test [4] (setting [10]), the IC50 amounted to 1.48 µM. In addition, in test [1], the “CAv2.2 IC50 Ratio closed/inact.” value is 18.7. For the same molecule, the “CAv3.2 IC50 Ratio closed/inact.” value in test [2] worked out at 4.7. For the same molecule, the “CAv1.2 IC50 Ratio closed/inact.” value in test [4] stood at 2.6.
Regarding `CC(C)([C@H]1C[C@@H](NC(=O)c2ccc(OCC(F)(F)F)nc2)C1)S(=O)(=O)c1cccc(C(F)(F)F)c1` [Compound 582], the IC50 was 2.88 µM in test [1] (setting [5]); 0.19 µM in test [1] (setting [6]); 4.35 µM in test [2] (setting [7]); 1.31 µM in test [2] (setting [8]); ≥ 10 µM in test [3]; 5.77 µM in test [4] (setting [9]). Moreover, in test [4] (setting [10]), the IC50 worked out at 2.06 µM. In addition, the “CAv2.2 IC50 Ratio closed/inact.” value in test [1] turned out to be 15.2. In test [2], the “CAv3.2 IC50 Ratio closed/inact.” value turned out to be 3.3. Moreover, the “CAv1.2 IC50 Ratio closed/inact.” value in test [4] is 2.8.
Consider `CC(C)S(=O)(=O)c1cc(C(F)(F)F)cnc1C(=O)N[C@H]1C[C@@H](C(C)(C)S(=O)(=O)c2cc(F)cc(C(F)(F)F)c2)C1` [Compound 586], for which the IC50 in test [1] (setting [5]) is 10 µM; in test [1] (setting [6]) it was 0.48 µM; in test [2] (setting [7]), ≥ 10 µM; in test [2] (setting [8]), 10 µM; in test [3] it was ≥ 10 µM; in test [4] (setting [9]), ≥ 10 µM. Further, the 50% inhibitory concentration (IC50) in test [4] (setting [10]) turned out to be 9.37 µM. In addition, in test [1], the “CAv2.2 IC50 Ratio closed/inact.” value was found to be 20.8. In addition, in test [2], the “CAv3.2 IC50 Ratio closed/inact.” value was determined as 1. Moreover, in test [4], the “CAv1.2 IC50 Ratio closed/inact.” value came out at 1.1.
On to `CC(C)([C@H]1C[C@@H](NC(=O)c2cc(C(F)(F)F)n[nH]2)C1)S(=O)(=O)c1cc(F)cc(C(F)(F)F)c1` [Compound 587], for which the IC50 in test [1] (setting [5]) is 5.55 µM; in test [1] (setting [6]), 0.72 µM; in test [2] (setting [7]), 6.56 µM; in test [2] (setting [8]), 3.6 µM; in test [3], ≥ 10 µM; in test [4] (setting [9]), ≥ 10 µM. For the same molecule, the IC50 in test [4] (setting [10]) was determined as 4.85 µM. For the same molecule, the “CAv2.2 IC50 Ratio closed/inact.” value in test [1] was found to be 7.7. Moreover, the “CAv3.2 IC50 Ratio closed/inact.” value in test [2] was 1.8. In addition, the “CAv1.2 IC50 Ratio closed/inact.” value in test [4] came to 2.1.
As to `CC(C)([C@H]1C[C@@H](NC(=O)c2ccc(Cl)c(F)c2)C1)S(=O)(=O)c1cc(F)cc(C(F)(F)F)c1` [Compound 589], the IC50 is 2.37 µM in test [1] (setting [5]); 0.27 µM in test [1] (setting [6]); 4.14 µM in test [2] (setting [7]); 1.07 µM in test [2] (setting [8]); 4.03 µM in test [3]; 4.91 µM in test [4] (setting [9]). The half-inhibitory concentration (IC50) in test [4] (setting [10]) turned out to be 1.8 µM. For the same molecule, the “CAv2.2 IC50 Ratio closed/inact.” value in test [1] was found to be 8.8. In addition, the “CAv3.2 IC50 Ratio closed/inact.” value in test [2] stood at 3.9. Also, in test [4], the “CAv1.2 IC50 Ratio closed/inact.” value was determined as 2.7.
In the case of `CC(C)([C@H]1C[C@@H](NC(=O)c2ccc(F)c(Cl)c2)C1)S(=O)(=O)c1cc(F)cc(C(F)(F)F)c1` [Compound 590], the IC50 in test [1] (setting [5]) was found to be 2.83 µM; in test [1] (setting [6]) it was 0.34 µM; in test [2] (setting [7]), 4.3 µM; in test [2] (setting [8]), 1.37 µM; in test [3], 6.85 µM; in test [4] (setting [9]) it was 5.33 µM. In test [4] (setting [10]), the IC50 turned out to be 1.7 µM. Besides, in test [1], the “CAv2.2 IC50 Ratio closed/inact.” value is given as 8.3. Besides, the “CAv3.2 IC50 Ratio closed/inact.” value in test [2] is 3.1. In test [4], the “CAv1.2 IC50 Ratio closed/inact.” value is 3.1.
Turning to `CC(C)S(=O)(=O)c1cc(C(F)(F)F)cnc1C(=O)N[C@H]1C[C@H](C(C)(C)S(=O)(=O)c2cc(F)cc(C(F)(F)F)c2)C1` [Compound 593], the IC50 is 10 µM in test [1] (setting [5]); 0.16 µM in test [1] (setting [6]); ≥ 10 µM in test [2] (setting [7]); 10.4 µM in test [2] (setting [8]); ≥ 10 µM in test [3]; ≥ 10 µM in test [4] (setting [9]). Besides, the IC50 in test [4] (setting [10]) came to 7.86 µM. Further, the “CAv2.2 IC50 Ratio closed/inact.” value in test [1] is 62.5. Besides, in test [2], the “CAv3.2 IC50 Ratio closed/inact.” value turned out to be 1. The “CAv1.2 IC50 Ratio closed/inact.” value in test [4] is given as 1.3.
Turning to `CC(C)([C@H]1C[C@H](NC(=O)c2ccnc(C(F)(F)F)n2)C1)S(=O)(=O)c1cc(F)cc(C(F)(F)F)c1` [Compound 595], the IC50 is 3.63 µM in test [1] (setting [5]); 0.21 µM in test [1] (setting [6]); ≥ 10 µM in test [2] (setting [7]); 9.83 µM in test [2] (setting [8]); ≥ 10 µM in test [3]; ≥ 10 µM in test [4] (setting [9]). For the same molecule, the IC50 in test [4] (setting [10]) was ≥ 10 µM. Further, the “CAv2.2 IC50 Ratio closed/inact.” value in test [1] is 17.3. Besides, in test [2], the “CAv3.2 IC50 Ratio closed/inact.” value is 1.
As to `CC(C)([C@H]1C[C@H](NC(=O)c2ccc(Cl)c(F)c2)C1)S(=O)(=O)c1cc(F)cc(C(F)(F)F)c1` [Compound 596], the IC50 in test [1] (setting [5]) is 1.73 µM; in test [1] (setting [6]), 0.26 µM; in test [2] (setting [7]), 3.13 µM; in test [2] (setting [8]), 1.11 µM; in test [3] it was 9.74 µM; in test [4] (setting [9]), 3.63 µM. Further, in test [4] (setting [10]), the IC50 came out at 1.43 µM. The “CAv2.2 IC50 Ratio closed/inact.” value in test [1] is 6.7. Besides, the “CAv3.2 IC50 Ratio closed/inact.” value in test [2] is recorded as 2.8. The “CAv1.2 IC50 Ratio closed/inact.” value in test [4] is given as 2.5.
On to `CC(C)([C@H]1C[C@H](NC(=O)c2ccc(F)c(Cl)c2)C1)S(=O)(=O)c1cc(F)cc(C(F)(F)F)c1` [Compound 597], for which the half-maximal inhibitory concentration (IC50) in test [1] (setting [5]) is 1.43 µM; in test [1] (setting [6]) it was 0.17 µM; in test [2] (setting [7]) it was 3.12 µM; in test [2] (setting [8]), 1.21 µM; in test [3] it was 3.8 µM; in test [4] (setting [9]) it was 3.7 µM. Further, the IC50 in test [4] (setting [10]) was 0.86 µM. In addition, the “CAv2.2 IC50 Ratio closed/inact.” value in test [1] was found to be 8.4. The “CAv3.2 IC50 Ratio closed/inact.” value in test [2] is recorded as 2.6. Also, the “CAv1.2 IC50 Ratio closed/inact.” value in test [4] is on record as 4.3.
`CC(C)([C@H]1C[C@@H](NS(=O)(=O)c2ccc(C(F)(F)F)cc2)C1)S(=O)(=O)c1cc(F)cc(C(F)(F)F)c1` [Compound 598]: the IC50 in test [1] (setting [5]) is 5.74 µM; in test [1] (setting [6]), 0.7 µM; in test [2] (setting [7]) it was ≥ 10 µM; in test [2] (setting [8]), 4.56 µM; in test [3] it was 7.56 µM; in test [4] (setting [9]), 9.38 µM. Moreover, the 50% inhibitory concentration (IC50) in test [4] (setting [10]) worked out at 2.83 µM. The “CAv2.2 IC50 Ratio closed/inact.” value in test [1] is 8.2. For the same molecule, the “CAv3.2 IC50 Ratio closed/inact.” value in test [2] is given as 2.2. In addition, the “CAv1.2 IC50 Ratio closed/inact.” value in test [4] was determined as 3.3.
`CC(C)([C@H]1C[C@@H](NS(=O)(=O)c2ccc(F)c(Cl)c2)C1)S(=O)(=O)c1cc(F)cc(C(F)(F)F)c1` [Compound 599]: the IC50 in test [1] (setting [5]) was 6.14 µM; in test [1] (setting [6]), 1.03 µM; in test [2] (setting [7]), ≥ 10 µM; in test [2] (setting [8]), 4.4 µM; in test [3], 5.59 µM; in test [4] (setting [9]) it was 8.85 µM. Also, the IC50 in test [4] (setting [10]) is 3.05 µM. The “CAv2.2 IC50 Ratio closed/inact.” value in test [1] was 6. The “CAv3.2 IC50 Ratio closed/inact.” value in test [2] is on record as 2.3. The “CAv1.2 IC50 Ratio closed/inact.” value in test [4] is 2.9.
